# Patent US6455589B1, “Primary N-hydroxylamines” (The Regents of the University of California, priority 1999, dated 2002)
# Where two headings read alike, the source gives them in different places.
# How the values were obtained:
# [1] = test system: cytochrome c; assay: Auto-oxidation of cyt c^II and direct reduction of cytochrome c by N-hydroxylamines; type: biochemical
# Protocol: In order to test the effect of N-hydroxylamines on the spontaneous oxidation of cytochrome c, a complete reduction of cyt c^III was achieved by incubating the X/XO system for 4-5 min at 25° C. Auto-oxidation of cyt c^II is associated with a decrease in absorbance at 550 nm. Reduced cytochrome c was incubated at 25° C. with or without 2 or 3 mM N-hydroxylamines and the auto-oxidation was followed by spectrophotometer. The rate of reduction of cytochrome c by different concentrations of each N-hydroxylamine was measured by the increase in absorbance at 550 nm.
# [2] = test system: IMR90 cells; assay: Replicative life span of IMR90 cells (gain in PDLs, delay of senescence); type: cell-based, human; conditions: for Gain in PDLs: continuous cultivation, compared to control untreated cells
# Protocol: Cultivating IMR90 cells in culture—Normal human […] fibroblasts (IMR90) cells were obtained from the Coriell Institute for Medical Research at a population doubling level (PDL) of 10.85. The PDLs were calculated as log2(D/Do), where D and Do are defined as the density of cells at the time of harvesting and seeding, respectively. Stock cultures were grown in 100 mm Corning tissue culture dishes containing 10 ml of Dulbecco's modified Eagle's medium (DMEM) supplemented with 10% (V/V) fetal bovine serum (Hyclone). Stock cultures were split once a week when near confluence. Cells were harvested by trypsinization for 5 min at 37° C., immediately collected in 5 ml complete DMEM, washed once with 5 ml complete DMEM and incubated for 10-15 min at 37° C. to allow the cells to recover.
# To test the effect of hydroxylamines on replicative life span, IMR90 cells were seeded at 0.5×106 per 100 mm dish. N-hydroxylamines (N-t-butyl hydroxylamine, N-benzyl hydroxylamine, N-methyl hydroxyl- amine) were added either individually (final concentration 10 or 100 μM) or in a combination of all three N-hydroxylamines (30 μM each). The cultures were split after 7 days and seeded with fresh medium supplemented with the hydroxylamines described above. In other experiments the medium of the cultures was replaced after 3 days of seeding with fresh medium and with fresh N-hydroxylamines, the split was done as usual after 7 days from seeding. The effect of PBN on life span was tested as in (5).
# [3] = test system: IMR90 cells; assay: Entry and concentration of N-t-butyl hydroxylamine in cells; type: in vitro ADME, human
# [4] = test system: IMR90 cells; assay: Steady state level of oxidants in IMR90 cells, DCFH oxidation by FACS; type: cell-based, human
# Protocol: (§1) Analysis of the age-dependent changes in the steady state level of oxidants and mitochondrial membrane potential in IMR90 cells by FACS—[…] were trypsinized and resuspended into complete DMEM. For each condition, two tubes were prepared with 1×10^6 cells each. Tubes were then spun at 250 g for 10 min at room temperature and supernatant was replaced with 1 ml of Hanks Balanced Salt Solution (HBSS) without Ca^++ or Mg^++. Rho123 (20 μl of 525 μM stock; 10.5 μM final concentration) was added to one tube and DCFH (20 μl of 1.25 mM stock; 25 μM final concentration) was added to the other tube. The cells were then incubated in the dark in a water bath at 37° C. for 30 min followed by cell resuspension and centrifugation at 250 g for 10 min at room temperature. The supernatant (500 μl) was removed from each tube and the cells were resuspended in the remaining 500 μl before FACS analysis on a FACSort analyzer (Becton Dickinson, San Jose, Calif.). Cell Quest was used for data acquisition and analysis. The data is reported as the mean of the channel of the fluorescence histogram obtained. Fluorescence output was calibrated with LinearFlow Green Flow cytometry Intensity Calibration Particles (Molecular Probes, Eugene, Oreg.).
# [5] = test system: IMR90 cells; assay: Cellular levels of GSH and GSSG in IMR90 cells (HPLC-EC); type: cell-based, human
# Protocol: Measurement of cellular levels of GSH and GSSG in IMR90 cells—Cultivated IMR90 cells (≈3×10^6) were washed once in cold PBS and resuspended in 200 μl of ice cold MSA (0.2M MSA/0.5mM diethylenetriamine pentaacetic acid, DTPA) and allowed to stand for 10 min at room temperature. Denatured proteins were removed by centrifugation and the supernatant was filtered with 30,000 D MW cut-off Ultrafree filters (Millipore) before injection. Fifty microliters were injected and separated on an HPLC column (3-μm 0.46×15cm Suplecosil LC18-DB, Supelco, Bellefonte, Pa.) with a flow rate of 1 ml/min using a mobile phase consisting of 25mM NaH2PO4, 5 mM octane sulfonic acid, and 2% acetonitrile, adjusted to pH 2.7 with phosphoric acid (26). An ESA model 5100A Coulochem detector, 5020 guard cell and model 5010 analytical cell combination was used for analysis. Oxidation potentials of 900 mV, 400 mV and 880 mV were used for guard cell, electrode 1 and 2, respectively. Full-scale output was 10 μA and peak areas were compared using commercial GSH and GSSG as standards.
# [6] = Auto-oxidation in a cell free system; type: physicochemical
# [7] = test system: IMR90 cells; assay: Senescence-dependent change in mitochondria of IMR90 cells, Rho123 accumulation by FACS; type: cell-based, human
# Protocol: as §1
# [8] = test system: IMR90 cells; assay: H2O2-induced senescence of IMR90 cells; type: cell-based, human; conditions: 20 μM or 30 μM H2O2 once a week, cells continuously treated
# Protocol: To determine the effect of H2O2 on the replicative life span, cells were first seeded with fresh medium with or without N-hydroxylamines (see above) for a week. Next, cells grown with or without N-hydroxylamines were each split into two additional groups and then either; 1) treated with 20 or 30 μM H2O2 or 2) without treatment with H2O2.
# [9] = Depression in body temperature; type: in vivo, mice and gerbils; conditions: 500 mg/kg
# Protocol: Another undesirable systemic effect which has been observed in vivo with nitrone radical traps is a depression in body temperature. This toxicity can have serious health consequences and also can complicate diagnosis of other conditions. The subject hydroxylamines are administered to mice and gerbils at levels as high as 1000 mg/kg with no measurable temperature decrease. In contrast, PBN gives up to an 8° C. decrease in body temperature at a does of only 500 mg/kg.
# [10] = test system: mitochondrial preparations of cerebral cortex; conditions: relatively high concentrations; cited from earlier work
# [11] = test system: glutamine synthetase (GS); assay: Protection of glutamine synthetase against the effects of βAP fragments; type: biochemical
# Source text: (§2) While the hydroxylamines and PBN each show the ability to protect GS and CK against the effects of βAP fragments, the hydroxyamines give complete protection and in fact can at least partly reverse the effects of oxidation. In contrast, PBN's effectiveness is quite limited as it asymptotically levels out at a substantially incomplete level of protection.
# [12] = cited from earlier work
# [13] = test system: creatine kinase (CK); assay: Protection of creatine kinase against the effects of βAP fragments; type: biochemical
# Source text: as §2
# [14] = Infarct volume following an ischemic event (Example 18); type: in vivo
# Source text: The Ability of the Subject Hydroxylamines to Reduce Infarct Volume Following an Ischemic Event While PBN and the hydroxylamines are both effective at low doses, at high doses hydroxylamines gave the best protection and PBN was toxic.
# [15] = type: in vivo; conditions: 560 mg/kg single i.p. dose
# Protocol: An important advantage of the subject hydroxylamines as compared to PBN, is its markedly diminished toxicity. Acute lethality in C57BL/6L mice is determined based upon varying sizes of single i.p. doses of hydoxylamine. […] The hydroxlamines show no toxicity at doses nearly twenty times as great.
# [16] = Neuron loss following brain ischemia and reperfusion injury (Examples 14-16); set-up: species or system gerbils; conditions: in vivo
# Protocol: The test procedure is that reported by W. Cao, J. M. Carney, A. Duchon, R. A. Floyd and M. Chevion as “Oxygen free radical involvement in ischemia and reperfusion injury to brain, Neuroscience Letters, 88 (1988), 233. In the experiments a test compound is administered to groups of six gerbils i.p. as a single dose 30 min before 5 min bilateral carotid occlusion. The density of neuronal nuclei in a 100 micron is measured. Two controls are present—controls which receive no test compound and controls which receive no test compound and no brain ischemia. The compounds of the invention show advantages as compared to the prior art compounds.
# The general method described above is used but the test compounds are administered i.p. as a single dose 30 min after reperfusion following 5 min ischemia.
# Comparing the Subject Hydroxylamines With PBN to Determine the Relative Effectiveness for Protection of Neuronal Loss when Administered i.v. 60 min after Reperfusion Onset Following 5 min Ischemia in Gerbils Using the General Test Method Described Above
# [17] = rat, in vivo; cited from earlier work
# [18] = test system: IMR90 cells; conditions: literature (5); cited from earlier work
# [19] = Lethality protection in aged gerbils from 10 min ischemia; type: in vivo; conditions: given 30 min before 10 min ischemia
# Protocol: In this study, subject hydroxylamines and PBN are compared for their ability to impart lethality protection (% survived) in aged gerbils (18-24 months of age, n=12/group) from 10 min ischemia when given 30 min before ischemia.
# [20] = in vivo
# Protocol: C57BL/6J and DBA/2J male mice (35-40 g) are tested for the acute lethal effects of adriamycin and the prevention of acute lethality by pretreatment doses of subject hydroxylamines. Mice are injected i.p with either saline or subject hydroxylamines 30 minutes prior to administration of adriamycin.
# [21] = gerbils; cited from earlier work
# [22] = rats; cited from earlier work
# [23] = in vivo; cited from earlier work
# [24] = 8-arm maze test 24 hours following 5 min ischemia; type: in vivo; conditions: 24 hours post 5 min ischemia, young adult gerbils
# Protocol: In this experiment, young adult (3-4 months of age) gerbils are tested to determine their ability to perform an 8-arm maze test 24 hours following an ischemic event as described above As compared to nonischemic animals, when untreated they committed many more errors. PBN and subject hydroxyamines are administered to some of the test animals. Gerbils treated with high doses of the hydroxylamines have error levels indistinguishable from those of nonischemic animals.
# [25] = 100 μM, linear regression 26-50 PDLs
# [26] = 300 mg/kg, in combination with adriamycin
smiles,measurement,setting,value
"CC(C)(C)NO [NtBHA, N-t-butyl hydroxylamine]",Direct reduction of cyt c^III to cyt c^II,[1],somewhat less efficient
same,Delay of senescence of IMR90 cells (in words),[2],delays senescence
same,Gain in PDLs,[2]; 10 μM,5.8 PDLs
same,Gain in PDLs,[2]; 100 μM (added once per 7 days),19.7 PDLs
same,"Concentration required to delay senescence (gain in PDLs), relative to PBN",[2]; vs PBN 200 μM,20 times lower
same,Concentration in the cells,[3],approximately 5 fold
same,Entry into the cells,[3],rapidly enters the cells
same,"DCFH, AFU/PDL (rate of DCFH oxidation per PDL)",[4]; [25],0.27 (0.32) AFU/PDL
same,Percent of decrease in the rate of oxidants formation from control,"[4]; DCFH oxidation, continuous treatment",88%
same,GSH,"[5]; 100 μM, 26-50 PDLs",49.5 ± 5.6
same,GSH/GSSG,"[5]; 100 μM, 26-50 PDLs",123.8
same,GSSG,"[5]; 100 μM, 26-50 PDLs",0.4 ± 0.045
same,Increase of the GSH/GSSG ratio,[5]; vs control,75%
same,Stability to auto-oxidation,[6],stable to auto-oxidation
same,"Rho123, AFU/PDL (rate of Rho123 accumulation per PDL)",[7]; [25],9.3 (0.85) AFU/PDL
same,Decrease of the rate of Rho123 accumulation as a function of senescence,[7]; vs control,70%
same,H2O2-induced senescence,[8],attenuated
"CC(C)(C)[N+]([O-])=Cc1ccccc1 [PBN, α-Phenyl-N-t-butyl nitrone]",Decrease in body temperature,[9],≤ 8 °C
same,Production of hydrogen peroxide,[10],reduces
same,Protection of GS against the effects of βAP fragments,[11],quite limited
same,Delay of senescence of IMR90 cells (in words),[2],old solutions were more effective than fresh solutions
same,Gain in PDLs,[2]; 200 μM,2.4 PDLs
same,Gain in PDLs,[2]; 800 μM,14.8 PDLs
same,"Concentration required to achieve nearly a similar gain in PDLs, relative to N-hydroxylamines",[2]; PBN 800 μM vs N-hydroxylamines 100 μM,8 times higher
same,Senescence,[12]; normal mice,delays senescence
same,Senescence,[12]; senescence-accelerated mice,delays senescence
same,Protection of CK against the effects of βAP fragments,[13],quite limited
same,Reduction of infarct volume / toxicity,[14]; high doses,toxic
same,Reduction of infarct volume,[14]; low doses,effective
same,Acute toxicity,[15],significant toxicity
same,Neuronal density in control gerbils without brain injury,[16],Neither PBN nor the subject hydroxylamines have an effect
same,Mitochondrial decay in the liver of old rats,[17],reverses mitochondrial decay
same,Delay of senescence in IMR90,[18],delays senescence
same,Lethality protection (% survived),[19],only partially effective
same,Sedation,"[20]; 100 mg/kg, in combination with adriamycin",slight sedation
same,Combined toxicity (lethality),[20]; [26],10-20%
same,Sedation,[20]; [26],marked sedation
same,Shift in the adriamycin dose-effect curve,[20]; pretreatment,slight shift to the right
same,Effect after oxidative damage from ischemia/reperfusion injury,[21],neuroprotective effect
same,Effect after oxidative damage from ischemia/reperfusion injury,[22],neuroprotective effect
same,Age-related oxidative changes in the brains of old gerbils,[23],reverses
same,Errors in 8-arm maze test,[24],less effective
